Source: PubChem BioAssay (NCI)
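Exposure lasted 48 hours, with cells grown in 96-well plates and compounds tested at five concentrations. Abbreviation: GI50, concentration required for 50% inhibition of growth. TGI: total growth inhibition.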

Key:
Assay in all cases: inhibition of tumour cell growth, NCI panel, 48 h
NCI-H522 lung = system: NCI-H522 lung
SK-MEL-5 melanoma = system: SK-MEL-5 melanoma
DU-145 prostate = system: DU-145 prostate
MOLT-4 leukemia = system: MOLT-4 leukemia
NCI-H226 lung = system: NCI-H226 lung
ACHN renal = system: ACHN renal
UO-31 renal = system: UO-31 renal
M14 melanoma = system: M14 melanoma
HOP-92 NSCLC = system: HOP-92 NSCLC
SNB-75 CNS = system: SNB-75 CNS
OVCAR-8 ovarian = system: OVCAR-8 ovarian
T-47D breast = system: T-47D breast
PC-3 prostate = system: PC-3 prostate
LOX IMVI melanoma = system: LOX IMVI melanoma
OVCAR-5 ovarian = system: OVCAR-5 ovarian
MCF7 breast = system: MCF7 breast
MDA-MB-231 breast = system: MDA-MB-231 breast
BT-549 breast = system: BT-549 breast
MDA-MB-435 = system: MDA-MB-435
KM12 colon = system: KM12 colon
K-562 leukemia = system: K-562 leukemia
SK-OV-3 ovarian = system: SK-OV-3 ovarian
HS 578T breast = system: HS 578T breast
OVCAR-3 ovarian = system: OVCAR-3 ovarian
SR leukemia = system: SR leukemia
COLO 205 colon = system: COLO 205 colon
RXF 393 renal = system: RXF 393 renal
SF-295 CNS = system: SF-295 CNS
UACC-62 melanoma = system: UACC-62 melanoma
A498 renal = system: A498 renal
HT29 colon = system: HT29 colon
CAKI-1 renal = system: CAKI-1 renal
OVCAR-4 ovarian = system: OVCAR-4 ovarian
NCI-H460 lung = system: NCI-H460 lung
SF-268 CNS = system: SF-268 CNS
TK-10 renal = system: TK-10 renal
SK-MEL-2 melanoma = system: SK-MEL-2 melanoma
HCT-15 colon = system: HCT-15 colon
A549 NSCLC = system: A549 NSCLC
HCT-116 colon = system: HCT-116 colon
HCC-2998 colon = system: HCC-2998 colon
UACC-257 melanoma = system: UACC-257 melanoma
786-0 renal = system: 786-0 renal
HL-60(TB) leukemia = system: HL-60(TB) leukemia
SK-MEL-28 melanoma = system: SK-MEL-28 melanoma
NCI/ADR-RES ovarian = system: NCI/ADR-RES ovarian
SNB-19 CNS = system: SNB-19 CNS
SF-539 CNS = system: SF-539 CNS
IGROV1 ovarian = system: IGROV1 ovarian
HOP-62 NSCLC = system: HOP-62 NSCLC
SN12C renal = system: SN12C renal
EKVX NSCLC = system: EKVX NSCLC
MALME-3M melanoma = system: MALME-3M melanoma
SW-620 colon = system: SW-620 colon
RPMI-8226 leukemia = system: RPMI-8226 leukemia
U251 CNS = system: U251 CNS

For `CCOC(=O)Cc1csc(NC(=O)C(OC(=O)c2ccc(N)cc2)c2ccccc2)n1` (configuration not stated), the GI50 (NCI-H522 lung) was 43 µM, the TGI (NCI-H522 lung) was > 100 µM and the GI50 (SK-MEL-5 melanoma) was 18.9 µM. For the same compound, the TGI (SK-MEL-5 melanoma) was 39.1 µM, the GI50 (DU-145 prostate) was 48.3 µM and the TGI (DU-145 prostate) was > 100 µM. For the same compound, the GI50 (MOLT-4 leukemia) was 24.8 µM, the TGI (MOLT-4 leukemia) was > 100 µM and the GI50 (NCI-H226 lung) was 60 µM. For the same compound, the TGI (NCI-H226 lung) was > 100 µM, the GI50 (ACHN renal) was 44.9 µM and the TGI (ACHN renal) was > 100 µM. For the same compound, the GI50 (UO-31 renal) was 54.4 µM, the TGI (UO-31 renal) was > 100 µM and the GI50 (M14 melanoma) was 22.6 µM. The TGI (M14 melanoma) was 62.5 µM, the GI50 (HOP-92 NSCLC) was 62 µM and the TGI (HOP-92 NSCLC) was > 100 µM. For the same compound, the GI50 (SNB-75 CNS) was 45.9 µM, the TGI (SNB-75 CNS) was > 100 µM and the GI50 (OVCAR-8 ovarian) was 73.6 µM. The TGI (OVCAR-8 ovarian) was > 100 µM, the GI50 (T-47D breast) was 55.2 µM and the TGI (T-47D breast) was > 100 µM. For the same compound, the GI50 (PC-3 prostate) was 50.7 µM, the TGI (PC-3 prostate) was > 100 µM and the GI50 (LOX IMVI melanoma) was 41.7 µM. The TGI (LOX IMVI melanoma) was > 100 µM, the GI50 (OVCAR-5 ovarian) was > 100 µM and the TGI (OVCAR-5 ovarian) was > 100 µM. For the same compound, the GI50 (MCF7 breast) was 32.3 µM, the TGI (MCF7 breast) was > 100 µM and the GI50 (MDA-MB-231 breast) was 31.6 µM. The TGI (MDA-MB-231 breast) was 97.1 µM, the GI50 (BT-549 breast) was 40.3 µM and the TGI (BT-549 breast) was > 100 µM. For the same compound, the GI50 (MDA-MB-435) was 31.1 µM, the TGI (MDA-MB-435) was > 100 µM and the GI50 (KM12 colon) was 37.5 µM. The TGI (KM12 colon) was > 100 µM, the GI50 (K-562 leukemia) was 31.6 µM and the TGI (K-562 leukemia) was > 100 µM. For the same compound, the GI50 (SK-OV-3 ovarian) was 46.7 µM, the TGI (SK-OV-3 ovarian) was > 100 µM and the GI50 (HS 578T breast) was 80.9 µM. The TGI (HS 578T breast) was > 100 µM, the GI50 (OVCAR-3 ovarian) was 20.5 µM and the TGI (OVCAR-3 ovarian) was 45.3 µM. For the same compound, the GI50 (SR leukemia) was 21.2 µM, the TGI (SR leukemia) was > 100 µM and the GI50 (COLO 205 colon) was 46.2 µM. For the same compound, the TGI (COLO 205 colon) was > 100 µM, the GI50 (RXF 393 renal) was 66.4 µM and the TGI (RXF 393 renal) was > 100 µM. The GI50 (SF-295 CNS) was 42.2 µM, the TGI (SF-295 CNS) was > 100 µM and the GI50 (UACC-62 melanoma) was 25.9 µM. For the same compound, the TGI (UACC-62 melanoma) was 65.6 µM, the GI50 (A498 renal) was 72.1 µM and the TGI (A498 renal) was > 100 µM. The GI50 (HT29 colon) was 39.9 µM, the TGI (HT29 colon) was > 100 µM and the GI50 (CAKI-1 renal) was 39.6 µM. The TGI (CAKI-1 renal) was > 100 µM, the GI50 (OVCAR-4 ovarian) was 32.7 µM and the TGI (OVCAR-4 ovarian) was > 100 µM. The GI50 (NCI-H460 lung) was 32.7 µM, the TGI (NCI-H460 lung) was > 100 µM and the GI50 (SF-268 CNS) was 35.5 µM. The TGI (SF-268 CNS) was > 100 µM, the GI50 (TK-10 renal) was 56.6 µM and the TGI (TK-10 renal) was > 100 µM. The GI50 (SK-MEL-2 melanoma) was 40.2 µM, the TGI (SK-MEL-2 melanoma) was > 100 µM and the GI50 (HCT-15 colon) was 43.5 µM. For the same compound, the TGI (HCT-15 colon) was > 100 µM, the GI50 (A549 NSCLC) was 51.5 µM and the TGI (A549 NSCLC) was > 100 µM. For the same compound, the GI50 (HCT-116 colon) was 30.8 µM, the TGI (HCT-116 colon) was > 100 µM and the GI50 (HCC-2998 colon) was 60 µM. For the same compound, the TGI (HCC-2998 colon) was > 100 µM, the GI50 (UACC-257 melanoma) was 40.5 µM and the TGI (UACC-257 melanoma) was > 100 µM. For the same compound, the GI50 (786-0 renal) was 48.6 µM, the TGI (786-0 renal) was > 100 µM and the GI50 (HL-60(TB) leukemia) was 18.4 µM. The TGI (HL-60(TB) leukemia) was 92.5 µM, the GI50 (SK-MEL-28 melanoma) was 30.9 µM and the TGI (SK-MEL-28 melanoma) was 98 µM. For the same compound, the GI50 (NCI/ADR-RES ovarian) was 43.5 µM, the TGI (NCI/ADR-RES ovarian) was > 100 µM and the GI50 (SNB-19 CNS) was 53 µM. For the same compound, the TGI (SNB-19 CNS) was > 100 µM, the GI50 (SF-539 CNS) was 30.6 µM and the TGI (SF-539 CNS) was 87.4 µM. The GI50 (IGROV1 ovarian) was 52.8 µM, the TGI (IGROV1 ovarian) was > 100 µM and the GI50 (HOP-62 NSCLC) was 52 µM. The TGI (HOP-62 NSCLC) was > 100 µM, the GI50 (SN12C renal) was 46.6 µM and the TGI (SN12C renal) was > 100 µM. The GI50 (EKVX NSCLC) was > 100 µM, the TGI (EKVX NSCLC) was > 100 µM and the GI50 (MALME-3M melanoma) was 44.2 µM. For the same compound, the TGI (MALME-3M melanoma) was > 100 µM, the GI50 (SW-620 colon) was 49.5 µM and the TGI (SW-620 colon) was > 100 µM. For the same compound, the GI50 (RPMI-8226 leukemia) was 63.9 µM, the TGI (RPMI-8226 leukemia) was > 100 µM and the GI50 (U251 CNS) was 45.5 µM. The TGI (U251 CNS) was > 100 µM.
